Laboratory results from US12642886B2, “POSS viscoelastic hemostatic agents” (Hybrid Plastics, Incorporated, priority 2019, dated 2026).

Experiment: Viscometric properties (oscillatory rheology, shear sweep)
Format: physicochemical
Protocol: The molecular weight of trisilanol i-octyl POSS® at 1184 g/mol, is generally equivalent to that of common silicone oligomers. In comparison to telechelic silanol polydimethylsiloxanes, trisilanol i-octylPOSS is unique in terms of its high viscosity (27 Pa·s at 24° C.) relative to the 4.3 wt % of silanol it contains. Telechelic silanol polydimethylsiloxanes and diphenyl-siloxane-dimethyl-siloxane copolymers with equivalent silanol contents are generally low viscosity fluids
Oscillatory rheology was utilized to determine the viscometric characteristics of i-octylPOSS trisilanol versus mixtures containing solid hemostatic agents suspended in the carrier fluid, i-octylPOSS trisilanol. The solid hemostatic agents utilized for these tests were chitin and kaolin. Shear sweep measurements of viscosity at 37° C. over the range of 0.01-100 s^−1 were deemed adequate to assess reproducibility of the hemostat agent mixtures.
It is non-Newtonian attributes are evidenced by a reduction of viscosity relative to shear rate. The shear thinning behavior is useful as it enables the hemostat to be syringable or pourable yet to remain in place once deposited onto a wound. Desirably, the viscosity of this hemostat can be controlled simply by increasing or decreasing the amount of kaolin incorporation.
A similar viscosity test was performed using chitin as the solid hemostatic additive.

trisilanol hepta-isoOctyl POSS [i-octylPOSS trisilanol]
viscosity (at 24° C.): 27 Pa·s
rheological behaviour (viscosity relative to shear rate) (shear sweep 0.01-100 s^−1 at 37° C.): Newtonian fluid
